Results published in ChEMBL document CHEMBL1134165, “Anthraquinone-peptides as inhibitors of AP-1 transcription factor” (Bioorg Med Chem Lett, 2001).

Key:
Format in all cases: nucleic-acid assay
Conditions in all cases: Bos taurus
[1] = test system: Nucleic Acid; test: Delta Tm is the difference between the melting temperature of calf thymus DNA in the presence and absence of 2-peptide conjugate at a 10:1 ratio of DNA/drug
[2] = test system: Nucleic Acid; test: Percent maximum loss of ethidium bromide (EtBr) fluorescence bound to DNA (ratio 1:3) in presence of 2-peptide conjugate
[3] = test system: Nucleic Acid; test: Delta Tm is the difference between the melting temperature of calf thymus DNA in the presence and absence of 2-peptide conjugate at a 10:1ratio of DNA/drug

ΔTm [1] | Quench [2] [%] | ΔTm [3] | Substance
7.5 | – | – | H-AKCRA-OH
5.5 | 5 | – | H-AKCRDA-OH
7.3 | – | – | H-AKCRKA-OH
5.5 | – | – | H-AKSRA-OH
6 | – | – | H-AAKCRAA-OH
– | – | 4.8 | H-ARCKA-OH
9 | 45 | – | H-AKCRKRA-OH
10.3 | – | – | H-AKCRDRA-OH
